Assay [1] has as its target T1, Glutamate receptor ionotropic, NMDA 1 (Rattus norvegicus, UniProt P35439). Description: Inhibition of [3H]- glycine binding to NMDA receptor from rat cortical membranes. In kind it is cell membranes, Membrane.
Assay [2] addresses T1, Glutamate receptor ionotropic, NMDA 1. The assay is described as follows: Inhibition of [3H]- glycine binding to N-methyl-D-aspartate glutamate receptor from rat cortical membranes. In kind it is cell membranes, Membrane.

The values that follow come from ChEMBL document CHEMBL1126053, “4-Amido-2-carboxytetrahydroquinolines. Structure-activity relationships for antagonism at the glycine site of the NMDA receptor” (J Med Chem, 1992).

Each structure is given as a SMILES string.

`Cc1ccc(NC(=O)N[C@H]2C[C@H](C(=O)O)Nc3cc(Cl)cc(Cl)c32)cc1`: in assay [1], the concentration for half-maximal inhibition (IC50) (as a rule, the concentration that inhibits the measured activity by half) is 0.005 µM. On the same count and under the same terms, the result for `O=C(Cc1ccccc1)N[C@H]1C[C@H](C(=O)O)Nc2cc(Cl)cc(Cl)c21` (stereo in doubt; 15) reads 0.011 µM. Same read-out and setting: the result for `O=C(Cc1ccccc1)N[C@H]1C[C@H](C(=O)O)Nc2cc(Cl)cc(I)c21` reads 0.01 µM. `COc1ccc(CC(=O)N[C@H]2C[C@H](C(=O)O)Nc3cc(Cl)cc(Cl)c32)cc1`: in assay [1], the IC50 turned out to be 0.039 µM. With `O=C(Nc1ccccc1)N[C@H]1C[C@H](C(=O)O)Nc2cc(Cl)cc(I)c21`, the IC50 in assay [1] was determined as 0.006 µM. The same measure, in the same setting: the same measure for `O=C(O)[C@H]1C[C@H](N2CCN(c3ccccc3)C2=O)c2c(Cl)cc(Cl)cc2N1`: 0.006 µM; for `O=C(O)[C@H]1C[C@H](N2C(=O)c3ccccc3C2=O)c2c(Cl)cc(Cl)cc2N1`: 1.9 µM. Same read-out and setting: the same measure for `CC(C)(C)OC(=O)N[C@@H]1C[C@H](C(=O)O)Nc2cc(Cl)cc(Cl)c21`: 11.4 µM; for `O=C(O)[C@H]1C[C@H](NC(=O)N(c2ccccc2)c2ccccc2)c2c(Cl)cc(Cl)cc2N1`: 0.019 µM. Compound `N[C@H](Cc1ccccc1)C(=O)N[C@@H]1C[C@@H](C(=O)O)Nc2cc(Cl)cc(Cl)c21` came in with an IC50 in assay [1] of over 1000 µM. The same measure, in the same setting: the same measure for `O=C(NCc1ccccc1)N[C@H]1C[C@H](C(=O)O)Nc2cc(Cl)cc(Cl)c21`: 0.03 µM. On the same count and under the same terms, the same measure for `N[C@H]1C[C@H](C(=O)O)Nc2cc(Cl)cc(Cl)c21`: 11.3 µM; for `O=C(N[C@H]1C[C@H](C(=O)O)Nc2cc(Cl)cc(Cl)c21)c1ccco1`: 0.15 µM.

The compound `N[C@@H](Cc1ccccc1)C(=O)N[C@H]1C[C@H](C(=O)O)Nc2cc(Cl)cc(Cl)c21` yielded an IC50 in assay [1] of 1.05 µM. On the same count and under the same terms, the same measure for `O=C(O)[C@H]1C[C@H](N2Cc3ccccc3CC2=O)c2c(Cl)cc(Cl)cc2N1`: 0.072 µM; for `O=C(O)[C@H]1C[C@H](NCc2ccccc2)c2c(Cl)cc(Cl)cc2N1`: 10.7 µM.

In the case of `O=C(N[C@H]1C[C@H](C(=O)O)Nc2cc(Cl)cc(Cl)c21)C1c2ccccc2-c2ccccc21`, the IC50 in assay [1] is 0.025 µM. In the case of `O=C(N[C@H]1C[C@H](C(=O)O)Nc2cc(Cl)cc(Cl)c21)c1ccccc1`, the IC50 in assay [1] was 0.1 µM. The same measure, in the same setting: the result for `N[C@@H](Cc1ccccc1)C(=O)N[C@@H]1C[C@@H](C(=O)O)Nc2cc(Cl)cc(Cl)c21` reads over 100 µM.

Take `O=C(O)[C@H]1C[C@H](NC(=S)Nc2ccccc2)c2c(Cl)cc(Cl)cc2N1`: in assay [1], the IC50 turned out to be 0.09 µM. As for `O=C(Cc1ccsc1)N[C@H]1C[C@H](C(=O)O)Nc2cc(Cl)cc(Cl)c21`, in assay [1], the IC50 worked out at 0.03 µM. In turn, `O=C(CN[C@H]1C[C@H](C(=O)O)Nc2cc(Cl)cc(Cl)c21)Nc1ccccc1` showed an IC50 in assay [1] of 0.42 µM. On the same count and under the same terms, the same measure for `O=C(N[C@H]1C[C@H](C(=O)O)Nc2cc(Cl)cc(Cl)c21)OCc1ccccc1`: 0.079 µM; for `O=C(CC1CCCCC1)N[C@H]1C[C@H](C(=O)O)Nc2cc(Cl)cc(Cl)c21`: 0.11 µM.

Compound `Cc1cccc(NC(=O)N[C@H]2C[C@H](C(=O)O)Nc3cc(Cl)cc(Cl)c32)c1` registered an IC50 in assay [1] of 0.018 µM.

Take `O=C(CCc1ccccc1)N[C@H]1C[C@H](C(=O)O)Nc2cc(Cl)cc(Cl)c21`: in assay [1], the IC50 was determined as 0.076 µM. Same read-out and setting: the result for `O=C(O)[C@H]1C[C@H](NC(=O)N2CCc3ccccc32)c2c(Cl)cc(Cl)cc2N1` reads 0.22 µM; that for `O=C(N[C@@H]1C[C@H](C(=O)O)Nc2cc(Cl)cc(Cl)c21)c1ccccc1`, 8.3 µM; that for `N[C@@H]1C[C@H](C(=O)O)Nc2cc(Cl)cc(Cl)c21`, 14.1 µM. Still for that read-out and setting: the same measure for `O=C(O)[C@H]1C[C@H](N2Cc3ccccc3C2=O)c2c(Cl)cc(Cl)cc2N1`: 0.027 µM; for `CCCC(=O)N[C@H]1C[C@H](C(=O)O)Nc2cc(Cl)cc(Cl)c21`: 0.37 µM. In assay [1], `O=C(Cc1ccccc1)N[C@H]1C[C@H](C(=O)O)Nc2cc(I)cc(Cl)c21` displayed an IC50 of 0.042 µM. The same measure, in the same setting: the result for `O=C(O)[C@H]1C[C@H](NS(=O)(=O)c2ccccc2)c2c(Cl)cc(Cl)cc2N1` reads 5.2 µM; that for `O=C(O)[C@H]1CCc2c(Cl)cc(Cl)cc2N1`, 6.4 µM; that for `O=C(O)[C@H]1C[C@H](N2Cc3ccccc3NC2=O)c2c(Cl)cc(Cl)cc2N1`, 0.51 µM. On the same count and under the same terms, the same measure for `O=C(N[C@H]1C[C@H](C(=O)O)Nc2cc(Cl)cc(Cl)c21)C1CCCCC1`: 0.17 µM; for `O=C(CCCc1ccccc1)N[C@H]1C[C@H](C(=O)O)Nc2cc(Cl)cc(Cl)c21`: 0.17 µM.

In turn, `O=C(Nc1ccccc1)N[C@H]1C[C@H](C(=O)O)Nc2cc(Cl)cc(Cl)c21` registered an IC50 in assay [1] of 0.0074 µM.

For the compound `O=C(N[C@H]1C[C@H](C(=O)O)Nc2cc(Cl)cc(Cl)c21)C(c1ccccc1)c1ccccc1`, in assay [1], the IC50 turned out to be 0.061 µM. In turn, `O=C(N[C@H]1C[C@H](C(=O)O)Nc2cc(Cl)cc(Cl)c21)c1ccncc1` returned an IC50 in assay [1] of 0.63 µM. In the case of `O=C(Cc1ccc(O)cc1)N[C@H]1C[C@H](C(=O)O)Nc2cc(Cl)cc(Cl)c21`, the IC50 in assay [1] was 0.03 µM. The same measure, in the same setting: the result for `Cc1ccccc1NC(=O)N[C@H]1C[C@H](C(=O)O)Nc2cc(Cl)cc(Cl)c21` reads 0.0073 µM; that for `Nc1ccc(CC(=O)N[C@H]2C[C@H](C(=O)O)Nc3cc(Cl)cc(Cl)c32)cc1`, 0.018 µM. On the same count and under the same terms, the result for `CC(C)(C)OC(=O)N[C@H]1C[C@H](C(=O)O)Nc2cc(Cl)cc(Cl)c21` reads 0.94 µM; that for `Cc1ccc(CC(=O)N[C@H]2C[C@H](C(=O)O)Nc3cc(Cl)cc(Cl)c32)cc1`, 0.034 µM.

In assay [1], `O=C(Cc1ccccc1)N[C@H]1C[C@H](C(=O)O)Nc2cc(Cl)cc(Cl)c21` (stereo in doubt; 16) came in with an IC50 of 5.9 µM. On the same count and under the same terms, the same measure for `O=C(O)[C@H]1C[C@H](N2CCCC2=O)c2c(Cl)cc(Cl)cc2N1`: 0.046 µM; for `N[C@H](Cc1ccccc1)C(=O)N[C@H]1C[C@H](C(=O)O)Nc2cc(Cl)cc(Cl)c21`: 7 µM. Turning to `N#CN/C(=N\[C@H]1C[C@H](C(=O)O)Nc2cc(Cl)cc(Cl)c21)Nc1ccccc1`, the IC50 in assay [1] was determined as 0.58 µM. With `O=C(NCc1ccccc1)[C@H]1C[C@H](C(=O)O)Nc2cc(Cl)cc(Cl)c21`, the IC50 in assay [1] was 1.7 µM. Same read-out and setting: the same measure for `O=C(Cc1ccccc1)N[C@H]1C[C@H](C(=O)O)Nc2cc(Cl)cc(Cl)c21` (stereo in doubt; 14): 0.014 µM; for `O=C(Cc1cccs1)N[C@H]1C[C@H](C(=O)O)Nc2cc(Cl)cc(Cl)c21`: 0.032 µM; for `Cc1cc(C)c2c(c1)N[C@@H](C(=O)O)C[C@@H]2NC(=O)Cc1ccccc1`: 0.067 µM. Take `O=C(C[C@H]1C[C@H](C(=O)O)Nc2cc(Cl)cc(Cl)c21)Nc1ccccc1`: the IC50 in assay [1] was found to be 0.03 µM. In assay [1], `O=C(Cc1ccc(Cl)cc1)N[C@H]1C[C@H](C(=O)O)Nc2cc(Cl)cc(Cl)c21` yielded an IC50 of 0.052 µM. Same read-out and setting: the result for `CC(=O)N[C@H]1C[C@H](C(=O)O)Nc2cc(Cl)cc(Cl)c21` reads 0.9 µM. In assay [1], `O=C(NC1CCCCC1)N[C@H]1C[C@H](C(=O)O)Nc2cc(Cl)cc(Cl)c21` showed an IC50 of 0.028 µM. Same read-out and setting: the result for `CN(C(=O)N[C@H]1C[C@H](C(=O)O)Nc2cc(Cl)cc(Cl)c21)c1ccccc1` reads 0.045 µM. As for `O=C(Nc1cccc2ccccc12)N[C@H]1C[C@H](C(=O)O)Nc2cc(Cl)cc(Cl)c21`, the IC50 in assay [2] amounted to 0.011 µM.
